In US20020187534A1, “Treating cancer by increasing intracellular malonyl CoA levels” (priority 1999, published 2002):

Columns and labels:
[1] = Single dose LD10 determination; assay type: in vivo; conditions: BALB/c mice
[2] = test system: MCF-7 xenografts; assay: Histology of treated xenograft tumors; assay type: in vivo, mouse; conditions: 6 hours after 30 mg/kg
Protocol: (§1) In an additional parallel experiment to histologically examine treated and control tumors, 6 C75 treated and 6 vehicle control mice were sacrificed 6 hours after treatment. Tumor and normal tissues were fixed in neutral-buffered formalin, processed for routine histology, and immunohistochemistry for FAS was performed. Immunohistochemistry for FAS was performed on the MCF-7 xenografts using a mouse monoclonal anti-FAS antibody (Alo, et al., 1996) at 1:2000 on the Dako Immunostainer using the LSAB2 detection kit.

[3] = test system: fatty acid synthesis in MCF-7 xenografts and liver; assay: Ex vivo [U-14C]-acetate labeling of tumor and liver of xenografted mice; assay type: in vivo, mouse; conditions: 30 mg/kg intraperitoneal, within 3 hours
Protocol: In a parallel experiment to determine fatty acid synthesis activity in treated and control tumors, a group of MCF-7 xenografted mice were treated with C75 or vehicle at above doses and sacrificed after 3 hours. Tumor and liver tissue were ex vivo labeled with [U^14-C] acetate, lipids were extracted and counted as described (Pizer, et al, 1996).

[4] = Toxicity to host in nude mice (tolerability, histology of liver and other host tissues, weight); assay type: in vivo, mouse
Protocol: (§2) Treatment began when measurable tumors developed about 10 days after inoculation. Eleven mice (divided among two separate experiments of 5 and 6 mice each) were treated intraperitoneally with wcekly doses of C75 at 30 mg/kg in 0.1 ml RPMI. […] Eleven control mice (divided in the same way as the treatment groups) received RPMI alone. Tumor volume was measured with calipers in three dimensions. Experiment was terminated when controls reached the surrogate endpoint.
as §1

[5] = test system: SKBR3 and MCF7 human breast cancer cells; assay: Clonogenic assay (Example 2); assay type: cell-based; conditions: for cytotoxicity in clonogenic assays: inhibitors 6 hours, dose range for ACC or FAS inhibition
Protocol: Cells and inhibitors were as described for Example 1. For clonogenic assays, 4×10^5 cells were plated in […] flasks with inhibitors added for 6 hours in concentrations listed. Equal numbers of treated cells and controls were plated in 60 mm dishes. Clones were stained and counted after 7 to 10 days.

[6] = test system: MCF-7 xenografts; assay: Growth of subcutaneous MCF-7 xenografts in athymic nude mice; assay type: in vivo, mouse; conditions: 30 mg/kg intraperitoneal weekly, after 32 days
Protocol: Subcutaneous flank xenografts of the human breast cancer cell line, MCF-7 in nu/nu female mice (Harlan) were used to study the anti-tumor effects of C75 in vivo. All animal experiments complied with institutional animal care guidelines. All mice received a 90-day slow-release subcutaneous estrogen pellet (Innovative Research) in the anterior flank 7 days before tumor inoculation. […] MCF-7 cells were xenografted from culture in DMEM supplemented with 10% FBS and insulin 10 μg/ml.
as §2

[7] = test system: SKBR3 and MCF7 human breast cancer cell lines; assay: Fatty acid synthesis activity, [U-14C]-acetate pulse labeling of lipids; assay type: cell-based; conditions: for [U14C-acetate] incorporation into lipids: SKBR3 and MCF7, labeled for 2 hours after exposure to inhibitor; for dose range of maximal inhibition of FA synthesis: all cell lines tested
Protocol: The human breast cancer cell lines, SKBR3 and MCF7 were maintained in RPMI with 10% fetal bovine serum. Cells were screened periodically for Mycoplasma contamination (Gen-probe). All inhibitors were added as stock 5 mg/ml solutions in DMSO. For fatty acid synthesis activity determinations, 5×10^4 cells/well in 24 well plates were pulse labeled with [U-^14C]-acetate after exposure to drug, and lipids were extracted and quantified as described previously (Pizer, et al., 1988). For MCF7 cells, pathway activity was determined after 2 hours of inhibitor exposure.

[8] = test system: MCF-7 cells; assay: Malonyl-CoA levels by reversed phase HPLC; assay type: cell-based, human; conditions: for malonyl-CoA levels increased over controls: 1 hour exposure at 10 μg/ml
Protocol: Malonyl-CoA levels were measured in MCF-7 cells using the HPLC method of Corkey, et al. (1988, “Analysis of acyl-coenzyme A esters in biological samples,” Methods in Enzymology, 166:55-70). Briefly, 2.5×10^5 cells/well in 24 well plates were subjected to 1.2 ml of 10% TCA at 4° C. after various drug treatments. The pellet mass was recorded and the supernatant was washed 6 times with 1.2 ml of ether and reduced to dryness using vacuum centrifugation at 25° C. Coenzyme-A esters were separated and quantitated using reversed phase HPLC on a 5μ Supelco C18 column with a Waters HPLC system running Millenium^32 software monitoring 254 nm as the maximum absorbance for coenzyme-A. The following gradients and buffers were utilized: Buffer A: 0.1 M potassium phosphate, pH 5.0, Buffer B: 0.1 M potassium phosphate, pH 5.0, with 40% acetonitrile. Following a 20 min. isocratic run with 92% A, 8% B at 0.4 ml/min, flow was increased to 0.8 ml/min over one minute whereupon a linear gradient to 10% B was run until 24 min. then held at 10% B until 50 min. where a linear gradient was run to 100% B at 55 min., completing at 60 min. The following coenzyme-A esters (Sigma) were run as standards: malonyl-CoA, acetyl-CoA, glutathione-CoA, succinyl-CoA, HMG-CoA, and free CoA. Samples and standards were dissolved in 50 μl of buffer A. Coenzyme-A esters eluted sequentially as follows: malonyl-CoA, glutathione-CoA, free CoA, succinyl-CoA, HMG-CoA, and acetyl-CoA. Quantitation of coenzyme-A esters was performed by the Millenium^32 software.

[9] = test system: MCF-7 cells; assay: Cell growth inhibition assay, crystal violet; assay type: cell-based, human; conditions: for growth inhibition: 48 hours after treatment, Example 12
[10] = in vivo; cited from earlier work
[11] = test system: MCF-7 cells; assay: Fatty acid oxidation, 14CO2 released from [14C]palmitate; assay type: cell-based, human
Protocol: Fatty acid oxidation was measured by trapping and counting the ^14CO2 released from the oxidation of [^14C]palmitate in base. 1×10^6 MCF-7 cells were plated in T-25 flasks in triplicate and incubated overnight at 37° C. […] After 2 hours, medium with drugs was removed and cells were preincubated for 30 minutes with 1.5 ml of the following buffer: 114 mM NaCl, 4.7 mM KCI, 1.2 mM KH2PO4, 1.2 mM MgSO4, glucose 11 mM. After preincubation, 200 μl of assay buffer was added containing: 114 mM NaCl, 4.7 mM KCl, 1.2 mM KH2PO4, 1.2 mM MgSO4, glucose 11 mM, 2.5 mM palmitate (containing with 100 μCi of [1-^14C]palmitate) bound to albumin, 0.4 mM L-camitine, and cells were incubated at 37° C. for 2 hours. Following the incubation, 400 μl of benzothonium hydrochloride was added to the center well to collect released ^14CO2. […] The flasks with wells were then incubated for 2 hours at 37° C. after which the benzothonium hydrochloride was removed and counted for ^14C.

[12] = test system: MCF-7 cells; assay: Clonogenic assay (Example 11); assay type: cell-based, human; conditions: 6 h exposure; TOFA at 5 μg/ml
Protocol: After overnight incubation at 37° C., 1×10^6 MCF-7 cells were exposed to drugs as indicated for 6 h, washed, detached by trypsin digestion, counted and plated at 1000 or 500 cells/60-mm plate in triplicate. Colonies were stained with crystal violet and counted 4-6 days after plating. Controls consisted of cells incubated with DMSO without drugs. Error bars represent standard error of the mean.

[13] = test system: CPT-1; assay: Carnitine palmitoyltransferase-1 (CPT-1) assay in permeabilized MCF-7 cells; assay type: cell-based, human
Protocol: MCF-7 cells were plated in RPMI 1640 with 10% fetal bovine serum at 1×10^6 cells in six-well plates in triplicate. Following overnight incubation at 37° C., medium was removed and replaced with 700 μl of assay medium consisting of: 50 mM imidazole, 70 mM KCl, 80 mM sucrose, 1 mM EGTA, 2 mM MgCl2, 1 mM DTT, 1 mM KCN, 1 mM ATP, 0.1% fatty acid free bovine serum albumin, 70 μM palmitoyl-CoA, 0.25 μCi (methyl-^14C]L-camitine, 40 μg digitonin with or without 20 μM malonyl-CoA or other indicated inhibitors.
After incubation for 3 or 6 minutes at 37° C., the reaction was stopped by the addition of 500 μl of ice-cold 4 M perchloric acid. Cells were then harvested and centrifuged at 10,000× g for 5 min. The pellet was washed with 500 μl ice cold perchloric acid and centrifuged again. The resulting pellet was resuspended in 800 μl dH2O and extracted with 150 μl of butanol. The butanol phase was counted by liquid scintillation and represents the acylcarnitine derivative.

[14] = test system: SKBR3 and MCF7 cells; assay: Apoptosis by multiparameter flow cytometry, merocyanine 540 staining; assay type: cell-based, human
Protocol: Apoptosis was measured by multiparameter flow cytometry using a FACStar^Plus flow cytometer equipped with argon and krypton lasers (Becton Dickinson). Apoptosis was quantified using merocyanine 540 staining (Sigma), which detects altered plasma membrane phospholipid packing that occurs early in apoptosis, added directly to cells from culture (Pizer, et al., 1998; Mower, et al., 1994, “Decreased membrane pospholipid packing and decreased cell size precede DNA cleavage in mature mouse B cell apoptosis, J. Immunol., 152:4832-4842). In some experiments, chromatin conformational changes of apoptosis were simultaneously measured as decreased staining with LDS-751 (Exciton) (Frey, et al., 1995, “Nucleic acid dyes for detection of apoptosis in live cells,” Cytometry, 21:265-274). […] Cells were stained with LDS-751 at a final concentration of 100 nM from a 1 mM stock in DMSO. The merocyanine 540-positive cells were marked by an increase in red fluorescence, collected at 575+/−20 nm, 0.5 to 2 logs over merocyanine 540-negative cells. […] Data were collected and analyzed using CellQuest software (Becton Dickinson). In these experiments, all LDS-751 dim cells were merocyanine 540 bright, however a population of merocyanine 540 bright cells were detected that were not yet LDS-751 dim. All merocyanine 540 bright cells were classified as apoptotic.

[15] = test system: M-CPT-1; conditions: cited from earlier work

With C=C1C(=O)OC(CCCCCCCC)C1C(=O)O (stereo not shown) [C75] the LD10 [1] was 40 mg/kg, the tumor histology [2] was “numerous apoptotic bodies throughout the tumor tissue” and the “reduction of fatty acid synthesis in MCF-7 xenografts” value [3] was 70%. The “reduction of fatty acid synthesis in ex vivo labeled liver” value [3] was 76%, the tolerability ([4]; 30 mg/kg, outbred nude mice) was “well tolerated” and the “histological analysis of liver and other host tissues” value ([4]; following C75 treatment) was “no evidence of any short or long term toxicity”. For the same molecule, the toxicity noted ([4]; weekly intraperitoneal treatment) was “transient reversible weight loss was the only toxicity noted”, the “cytotoxicity in clonogenic assays” value [5] was “significantly cytotoxic” and the “difference in tumor growth compared to vehicle controls” value [6] was “greater than eight-fold”. The “[U14C-acetate] incorporation into lipids” value [7] was “inhibited”, the “dose range of maximal inhibition of FA synthesis” value [7] was ~10 µg/mL and the “malonyl-CoA levels increased over controls” value [8] was 370%. The growth inhibition [9] was “significant growth inhibition over control”.
For O=C([O-])C1(CCCCCCOc2ccc(Cl)cc2)CO1.[Na+] (stereo not shown) [Etomoxir], the “toxicity in humans treated for diabetes” value [10] is listed as “without significant toxicity or weight loss”, the “fatty acid oxidation decreased over control” value ([11]; 50 μg/ml) is listed as > 50% and the “cytotoxicity in clonogenic assay” value [12] is listed as “not significantly cytotoxic”. The reduction in growth ([9]; 200 μg/ml, the only effective dose) was “significant reduction in growth”, the growth inhibition [9] was “significant growth inhibition over control” and the “growth inhibition or cytotoxicity” value ([9]; doses known to inhibit CPT-1 and fatty acid oxidation, 48 or 72 h, Example 10) was “no significant growth inhibition or cytotoxicity”. For the same molecule, the “growth inhibition of MCF-7 cells” value ([9]; over 72 h, Example 7) was “dose dependent growth inhibition of MCF-7 cells over 72 h greater than that of C75 at 5 μg/ml” and the “reduction in CPT-1 activity” value ([13]; 10 μg/ml) was 75%.
In the case of CCCCCCCCCCCCCCOc1ccc(C(=O)O)o1 [TOFA, 5-(tetradecyloxy)-2-furoic acid], the “changes in fatty acid oxidation” value ([11]; data not shown) is reported as “nor does TOFA cause significant changes in fatty acid oxidation”, the “cytotoxicity in clonogenic assay” value [12] is reported as “not significantly cytotoxic” and the reduction in clonogenicity [5] is reported as “no reduction”. For the same molecule, the “TOFA rescue of C75 cytotoxicity in clonogenic assay” value ([5]; MCF7 cells) was “modest rescue”, the “TOFA rescue of cerulenin cytotoxicity in clonogenic assay” value ([5]; MCF7 cells) was “modest rescue” and the “cytotoxicity in clonogenic assays” value [5] was “non-toxic or stimulatory”. The “[U14C-acetate] incorporation into lipids” value [7] was “inhibited”, the “dose range of maximal inhibition of FA synthesis” value [7] was 1 to 5 µg/mL and the increase in apoptosis [14] was < 5%. For the same molecule, the “TOFA rescue from cerulenin induced apoptosis” value ([14]; SKBR3 and MCF7 cells) was “rescued cells from cerulenin induced apoptosis”, the “reduction of malonyl-CoA levels” value ([8]; 20 μg/ml) was 60% and the “direct inhibition of CPT-1” value [13] was “does not cause CPT-1 inhibition”.
For CC(C)(COP(=O)(O)OP(=O)(O)OC[C@H]1O[C@@H](n2cnc3c(N)ncnc32)[C@H](O)[C@@H]1OP(=O)(O)O)[C@@H](O)C(=O)NCCC(=O)NCCSC(=O)CC(=O)O [malonyl-CoA], the “sensitivity of M-CPT-1 versus L-CPT-1 to malonyl-CoA inhibition” value [15] is given as 100 fold.
In the case of C/C=C/C/C=C/CCC(=O)[C@H]1O[C@H]1C(N)=O [cerulenin], the “reduction in fatty acid oxidation compared to control” value ([11]; 10 μg/ml, 2 hours) is reported as ~50%, the reduction in clonogenicity [5] is reported as 70% and the “cytotoxicity in clonogenic assays” value [5] is reported as “significantly cytotoxic”. For the same molecule, the “reduction in fatty acid synthesis” value ([7]; MCF-7, 10 μg/ml, within 2 hours) was > 50%, the “[U14C-acetate] incorporation into lipids” value [7] was “inhibited” and the “dose range of maximal inhibition of FA synthesis” value [7] was ~10 µg/mL. The apoptosis [14] was > 85%, the “increase in malonyl-CoA” value ([8]; 10 μg/ml) was “nine-fold” and the “malonyl-CoA levels increased over controls” value [8] was 930%.
